pIC50: −log10 of the molar value. Like-named read-outs stand apart in the source and are kept apart here.
Tests used:
in vivo [1] = conditions: female, ICR, mouse, iv
Procedure: Plasma was obtained from three individual animals in each group at 5 minutes, 1, 2, 4, or 6 hr.

Namalwa cells (CD10pos) = assay: cells; format: cell-based, human; conditions: Homo sapiens, 24 hours, 3H-thymidine
Procedure: In addition to LNCaP, a number of B-cell lines, such as Ramos and Namalwa cells express CD10 (CD10^pos cells).
Suspension cells, BALL-1, Ramos and Namalwa cells were cultured in RPMI media containing 10% heat inactivated fetal calf serum (FCS). On the day of the study, the cells were collected, washed and resuspended at a concentration of 0.5×10^6 cells/ml in RPMI containing 10% FCS. 100 μl of cell suspension was added to 96 well plates. […] Finally 10 μl of a 100 μCi/ml ^3H-thymidine was added per well and the plates were incubated for 24 hours. The plates were harvested using a 96 well Harvester (Packard Instruments) and counted on a Packard Top Count counter. Four parameter logistic curves were fitted to the ^3H-thymidine incorporation as a function of drug molarity using Prism software to determine IC50 values.

[2] = Metabolism and clearance of Suc-Leu-Ala-Leu-Dox in mice (plasma, urine); format: in vivo, mouse
Procedure: Plasma samples of 100 μl were transferred to microcentrifuge tubes (1.5 mL) and an internal standard of daunorubicin (20 μL at 0.5 mg/ml) was added together with acetonitrile (400 μl). The tubes were capped and briefly vortexed followed by centrifugation at 14,000 rpm. 420 μl from each tube was removed and dried in vacuo. Each sample was reconstituted in 65 μl 20 mM aqueous ammonium formate (AF) pH 4.5 buffer containing acetonitrile (20%) prior to analysis by reverse phase liquid chromatography in combination with tandem mass spectrometry (LC MS/MS).
Urine was collected at 2 and 24 hours post administration from pairs of mice in metabolic cages. Urine samples were diluted with AF buffer containing acetonitrile (20%) to give a target analyte concentration within the practical range of the LC MS/MS assay. 30 μl of each diluted sample was placed in a micro centrifuge tube (1.5 ml) and an internal standard of daunorubicin (20 μL at 0.5 mg/ml) was added together with 50 μl of AF buffer containing acetonitrile (20%). Each sample was then analyzed by LC MS/MS.
An Agilent HP1100 HPLC with DAD detector and Chemstation software was coupled to a PE Sciex API 365 mass spectrometer with an electrospray ion source. HPLC was performed on a TSK-Gel Super ODS, […], 4.6×50 mm (TosoHaas) reversed phase column equipped with a […] C18 guard disc (Higgins Analytical) and stainless steel frit (Upchurch Scientific). Chromatography was performed at room temperature. The flow rate was 0.5 ml/min. Injection volume was 50 μl. Gradient elution was performed using a mobile phase of AF buffer with increasing amounts of acetonitrile. The API 365 was operated at 365° C. in a multiple reaction monitoring mode, set to monitor specific analyte parent-daughter ion pairs. Integration of chromatograms was performed by MacQuan software (PE Sciex) and quantitation of each analyte obtained by comparison to previously obtained calibration curves. Daunorubicin was used as an internal standard in all cases.

[3] = Metabolism and clearance of Suc-Met-Ala-Leu-Dox in mice (plasma, urine); format: in vivo, mouse
Procedure: Plasma samples were obtained at 1 or 4 hours, and urine was collected at 2 and 24 hours post administration. Levels of the prodrug and metabolites were measured by LC-MS with UV detection of doxorubicin.

in vivo [4] = conditions: female, mouse, iv
[5] = SD-MTD studies, 60 days, normal mice (Example 14); conditions: mouse, in vivo
Procedure: In the single dose Maximum Tolerated Dose (SD-MTD) studies, groups of normal mice were administered intravenous bolus doses of the prodrug. The mice were observed daily for 60 days and body weights measured twice weekly. The SD-MTD was estimated to be equal to the highest dose that produced no death in mice after 60 days.

tumor-bearing nude mice = assay: Repeat-dose tolerability / repeat dose MTD in tumor bearing mice; format: in vivo, mouse; conditions: Table 11, five doses at five day or 1 week intervals
Description: In one study, one animal in each dose group (n=8) was terminated as a possible drug-related toxicity death late in the study, at Days 58 and 57 in the low and high dose-groups respectively. The safety of the compound was evidenced by little body weight loss in either the high or low dose groups (less than 5% of the initial weight) during the 60-day observation period, in surviving animals (FIG. 14). In the other study, both the high and low dose were well tolerated. Only one animal in the high dose group (n=10) had over 15% of body weight loss at the end of the study (Day 61).
In repeat-dose studies in tumor bearing mice, groups of ten mice were dosed with various amounts of prodrug for a total of five doses at either five day or 1 week intervals. […] Thus, the prodrugs permit a much greater amount of therapeutic agent to be delivered to the body as a whole and thus to the vicinity of the target cell.

[6] = system: human colon carcinoma (HT-29); assay: HT-29 xenograft efficacy study; conditions: 4.0 mg/kg every 7 days for 5 doses
Description: Healthy young male nude mice were subcutaneously injected with 5 million of HT-29 cells.

[7] = system: human colon carcinoma (LS174T); assay: LS174T xenograft efficacy study; conditions: doxorubicin-insensitive model
Procedure: Healthy young female nude mice were subcutaneously implanted with chunks of LS174T. […] Tumor size and body weights were measured twice weekly for up to 60 days.

[8] = mouse, in vivo
[9] = system: HeLa cell anion exchange fraction (F1), trouase; assay: Relative cleavage by HeLa cell anion exchange fraction (F1) versus Suc-βAla-Leu-Ala-Leu standard; format: biochemical, human
Procedure: Thirty billion commercially produced HeLa Cells (human cervical carcinoma, Computer Cell Culture Ceizter, Seneffe, Belgium) were homogenized with a sonicator and with a Dounce homogenizer in 108 mL of aqueous lysis solution. The lysis solution contained 0.02% w/v Triton X-100, 0.04% w/v sodium azide, and a cocktail of protease inhibitors (2 tablets/50 mL Complete™, EDTA-free tablets, Roche Molecular Biochemicals). The cell homogenate was centrifuged 30 minutes at 4° C. at 5000×g and the pellet was homogenized in a second 108 mL of lysis solution using a Dounce homogenizer and centrifuged as before. The supernatants were combined and centrifuged for 90 min at 145,000×g at 4° C.
A portion of the ultracentrifugation supernatant was diluted 2-fold with a 20 mM triethanolamine-HCl pH 7.2 buffer containing 0.01% (w/v) Triton X-100 and 0.02% (w/v) sodium azide (equilibration buffer). Thirty mL of the resulting solution, corresponding to approximately 180 mg of protein, was loaded at 4° C. on a 2.6×9.4 cm Source™ 15Q (Amersham Pharmacia Biotech) low pressure anion exchange chromatography column (1 ml/minute). The column was then washed with 250 ml of the equilibration buffer at a flow rate of 1 mL/minute. Proteins were eluted in a NaCl linear concentration gradient (0–0.5 M in the equilibration buffer, total volume of the gradient was 1000 ml) at a flow rate of 3 ml/minute. Two-minute fractions were collected and used for enzyme activity determination using βAla-Leu-Ala-Leu-Dox as the substrate. Its transformation into Ala-Leu-Dox was quantified by reverse phase high performance liquid chromatography utilizing fluorescence detection of the anthracycline moiety. The fractions containing the highest activity levels were pooled (fractions #43–46; ˜0.13 M NaCl), supplemented with protease inhibitors (Complete™, EDTA-free tablets, Roche Molecular Biochemicals), and stored as aliquots at −80° C.
Test compounds were incubated for 2 hr at 37° C. at a concentration of 12.5 μg/mL with HeLa cell anion exchange fraction (F1), as prepared in Example 1(c). Following incubation, three volumes of acetonitrile were added to stop the reaction and remove protein from the mixture. The sample was centrifuged at 18,000 g for 5 minutes and 100 μL of supernatant was mixed with 300 μL of water prior to analysis by HPLC. For HPLC analysis 50 μL of sample was injected on a 4.6×50 mm 2μ TSK Super-ODS chromatography column at 40° C. and eluted with a 3 minute linear gradient from 26% to 68% acetonitrile in aqueous 20 mM ammonium acetate pH 4.5 buffer at 2 mL/min. Detection was by fluorescence using an excitation wavelength of 235 nm and an emission wavelength of 560 nm.
the amount of cleavage of each test compound was compared to the amount of a standard Suc-βAla-Leu-Ala-Leu-therapeutic agent conjugate cleaved by F1 under the same conditions. The therapeutic agent in the standard (Dox or Dnr) was the same as in the test compound. Table 3 provides the relative cleavage rates of several tripeptide prodrugs.

[10] = system: healthy young female normal mice; conditions: Example 7
[11] = after single intravenous 117 mg/kg Suc-Leu-Ala-Leu-Dox
[12] = after single intravenous 120 mg/kg Suc-Met-Ala-Leu-Dox

Question: What does the source list for `COc1cccc2c1C(=O)c1c(O)c3c(c(O)c1C2=O)C[C@@](O)(C(=O)CO)C[C@@H]3O[C@H]1C[C@H](N)[C@H](O)[C@H](C)O1` [Doxorubicin, reference compound]?
Answer: AUC (in vivo [1]): 3.3 µM·h; pIC50 (Namalwa cells (CD10pos)): 8.00; Urine 2 hr, percent of administered dose [2, 11]: 0.05%; Urine 24 hr, percent of administered dose [2, 11]: 0.15%; Plasma 1 hr, percent of administered dose ([2]; female, mouse, in vivo, iv, 117 mg/kg, 1 h): 0.002%; Plasma 4 hr, percent of administered dose ([2]; female, mouse, in vivo, iv, 117 mg/kg, 4 h): 0.000%; Urine 2 hr, percent of administered dose [3, 12]: 0.30%; Urine 24 hr, percent of administered dose [3, 12]: 0.61%; Plasma 1 hr, percent of administered dose ([3]; female, mouse, in vivo, iv, 120 mg/kg, 1 h): 0.002%; Plasma 4 hr, percent of administered dose ([3]; female, mouse, in vivo, iv, 120 mg/kg, 4 h): 0.002%; MTD at 28 days (in vivo [4]): 4 to 8 mg/kg; MTD at 60 days ([5]; Table 11, doses as first stated, intravenous bolus, 60 days): 4 mg/kg; Optimal Efficacy Repeat Dose (mg/kg), value in parentheses (doxorubicin equivalent dose) (tumor-bearing nude mice): 4 (4) mg/kg; Optimal Efficacy Repeat Dose (mg/kg) (tumor-bearing nude mice; tumor bearing mice, 60 days): 4 (4) mg/kg; Calculated Mean Day of Survival [6]: 30.0 ± 3.7 days; Extension of Mean Day of Survival over controls [6]: 16.7%; Number of Long Term Survivors [6]: 0/10; Calculated Mean Day of Survival ([6]; listed as doxorubicin): 30 days; anti-tumor activity in LS174T xenograft [7]: virtually inactive

Question: Which results are given for `COc1cccc2c1C(=O)c1c(O)c3c(c(O)c1C2=O)C[C@@](O)(C(=O)CO)C[C@@H]3O[C@H]1C[C@H](NC(=O)[C@H](CC(C)C)NC(=O)[C@H](C)NC(=O)[C@H](CCSC)NC(=O)CCC(=O)O)[C@H](O)[C@H](C)O1` [Suc-Met-Ala-Leu-Dox]?
Answer: MTD at 28 day ([8]; intravenous): ~40 mg/kg; MTD at 28 day ([8]; iv): ~71 mg/kg; Relative Cleavage % ([9]; 2 hr at 37° C., 12.5 μg/mL, HeLa F1, relative to Suc-βAla-Leu-Ala-Leu-(Dox or Dnr) standard): 49%; Relative Rate of Cleavage ([9]; relative to Suc-βAla-Leu-Ala-Leu-Dox = 100 (Tables 11 and 12)): 49; dose of doxorubicin at single dose MTD, fold higher than with doxorubicin alone [10]: about 1.5 fold; acute signs of toxicity ([10]; single intravenous 24-120 mg/kg): no acute signs of toxicity; Plasma 4 hr, percent of administered dose ([3]; mouse, in vivo, iv, 120 mg/kg): ~0.001%; Urine 2 hr, percent of administered dose ([3]; mouse, in vivo, iv, 120 mg/kg): 6.6%; MTD at 60 day ([5]; intravenous, SD MTD (mg/kg), value in parentheses (doxorubicin equivalent dose), Table 11, doses as first stated): 42 mg/kg; MTD at 60 day ([5]; intravenous, SD MTD (mg/kg), value in parentheses: doxorubicin equivalent dose, Table 12, re-analyzed data and new data): 42 mg/kg; MTD at 60 day ([5]; intravenous, Table 12, re-analyzed data and new data, read-out: SD MTD): 70 mg/kg; MTD at 60 day ([5]; iv, Table 11, doses as first stated, intravenous bolus, 60 days, read-out: SD MTD): 70 mg/kg
